Publication PMC6412366, “The Limitations of Collagen/CPP Hybrid Peptides as Carriers for Cancer Drugs to FaDu Cells” (Molecules, 2019)

Test system: FaDu cell surface
Assay: Suramin wash (competitive binding) of FL8V1-treated FaDu cells
Type: cell-based, human
Settings: concluded from reversed incubation order
Description: FaDu cells were seeded into MatTek dishes (No. 1.5 coverglass, 35 mm). After the cells were at least 70% confluent, the media was removed and the cells were gently washed with PBS. […] The cells were washed twice with PBS. Additional EMEM medium was added before the cell cultures were imaged using confocal microscopy (λEX = 488 for FITC tag) using the 60X oil immersion objective.

SMILES: Cc1ccc(C(=O)Nc2ccc(S(=O)(=O)O)c3cc(S(=O)(=O)O)cc(S(=O)(=O)O)c23)cc1NC(=O)c1cccc(NC(=O)Nc2cccc(C(=O)Nc3cc(C(=O)Nc4ccc(S(=O)(=O)O)c5cc(S(=O)(=O)O)cc(S(=O)(=O)O)c45)ccc3C)c2)c1 [suramin]
- binding of suramin to the FaDu cell surface: does not bind
